Assay results: the NIST ThermoML archive (doi:10.1016/j.tca.2018.08.022)
± gives the expanded uncertainty stated by the source.

Key:
[1] = for mass density: 101.33 kPa, X-ray diffraction
[2] = Molar enthalpy of transition or fusion; conditions: DSC

| Structure (SMILES) | Triple point temperature ([1]; Crystal 1, DSC) | Triple point temperature ([1]; Metastable crystal, DSC) | Molar enthalpy of transition or fusion ([2]; Crystal 1) | Triple point temperature ([1]; Crystal, visual observation) | Triple point temperature ([1]; Crystal 2, DSC) | Molar enthalpy of transition or fusion ([2]; Crystal 2) | other results |
| --- | --- | --- | --- | --- | --- | --- | --- |
| N#Cc1cc([N+](=O)[O-])ccc1-c1ccc2c(c1)C(=O)NC2=O [2-(1,3-dioxoisoindolin-5-yl)-5-nitrobenzonitrile] | – | – | – | 567.15 ± 3 K | – | – | – |
| CCCCN(CCCC)c1ccc(N=Nc2cccc(C#N)c2-c2ccc(C#N)c(C#N)c2)cc1 | 469.05 ± 0.8 K | – | 8.48 ± 0.311 kcal/mol | – | 386.25 ± 0.8 K | 0.645 ± 0.0478 kcal/mol | mass density ([1]; 296 K, Crystal 2): 1180 ± 6 kg/m3 |
| N#Cc1cc(N)ccc1-c1ccc2c(c1)C(=O)NC2=O [5-amino-2-(1,3-dioxoisoindolin-5-yl)benzonitrile] | – | – | – | 589.15 ± 3 K | – | – | – |
| CCCCN(CCCC)c1ccc(N=Nc2ccc(-c3ccc4c(c3)C(=O)NC4=O)c(C#N)c2)cc1 | 456.85 ± 0.8 K | – | 6.72 ± 0.239 kcal/mol | – | 436.45 ± 0.8 K | 0.621 ± 0.0478 kcal/mol | mass density ([1]; 200 K, Crystal 2): 1262 ± 7 kg/m3 |
| CCN(CC)c1ccc(N=Nc2ccc(-c3ccc(C#N)c(C#N)c3)c(C#N)c2)cc1 | 503.45 ± 0.8 K | 489.35 ± 0.8 K | 8.13 ± 0.287 kcal/mol | – | 487.95 ± 0.8 K | 1.31 ± 0.0717 kcal/mol | mass density ([1]; 296 K, Crystal 2): 1217 ± 8 kg/m3 |

Second part, led by results:

| Triple point temperature ([1]; Crystal 1, DSC) | Triple point temperature ([1]; Metastable crystal, DSC) | Molar enthalpy of transition or fusion ([2]; Crystal 1) | Triple point temperature ([1]; Crystal, visual observation) | Triple point temperature ([1]; Crystal 2, DSC) | Molar enthalpy of transition or fusion ([2]; Crystal 2) | Structure (SMILES) | other results |
| --- | --- | --- | --- | --- | --- | --- | --- |
| 368.35 ± 0.8 K | 365.05 ± 0.8 K | – | – | – | – | CCCCCCCCN(CCCCCCCC)c1ccc(N=Nc2ccc(-c3ccc(C#N)c(C#N)c3)c(C#N)c2)cc1 | mass density ([1]; 296 K, Metastable crystal): 1124 ± 7 kg/m3 |
| 427.35 ± 0.8 K | 403.45 ± 0.8 K | 8.39 ± 0.311 kcal/mol | – | – | – | CCCCN(CCCC)c1ccc(N=Nc2ccc(-c3ccc(C#N)c(C#N)c3)c(C#N)c2)cc1 | mass density ([1]; 296 K, Crystal 1): 1165 ± 6 kg/m3; Glass transition temperature ([1]; Glass, DSC): 42.00 ± 0.8 °C |
| – | – | – | 558.15 ± 3 K | – | – | N#Cc1ccc(-c2ccc(N)cc2C#N)cc1C#N [4-amino-[1,1'-biphenyl]-2,3',4'-tricarbonitrile] | – |
| – | – | – | 472.15 ± 3 K | – | – | N#Cc1ccc(-c2ccc([N+](=O)[O-])cc2C#N)cc1C#N [4-nitro-[1,1'-biphenyl]-2,3',4'-tricarbonitrile] | – |
